From patent US8367332B2, “Detection and quantification of abasic site formation in vivo” (Case Western Reserve University, priority 2008, dated 2013)

Tests used:
AP sites [1] = test: microPET of [^11C]MX in flank glioma (U87) xenografts, TMZ-treated vs non-treated; assay type: in vivo, mice; details: flank glioma xenograft; TMZ 80 mg/kg; 60 min scan
Method: (§1) Melanoma and glioma xenografts were prepared according to previously published procedures. Briefly, glioma (U87) and melanoma (WM164) tumor cells (5×10^6) were injected into the bilateral flanks of female athymic NRC nude mice (6-8 weeks of age). When the volume of tumor nodules reached 150-200 mm^3, mice are randomly assigned to control or treatment groups (4 mice/group).
Following MRI studies, the mice were transferred to a Concord R4 microPET scanner under anesthesia. The same holder was used for microPET studies so that the tumor positions of the mice remain unchanged in order to facilitate image coregistration with MRI. […] Body temperature in the anesthetized animals was monitored using a rectal temperature probe and maintained at 37+/−2° C. with a heating lamp or a heating pad.
Following MRI and microPET studies, we conducted quantitative image analysis in order to evaluate the in vivo pharmacokinetic profiles of [^11C]MX in tumor tissues. […] The co-registered images were used for quantitative image analysis to determine [^11C]MX uptake and retention associated with tumor tissues. The radioactivity concentration in the tumor regions is expressed in terms of standard uptake volume (SUV) [(μCi/cc)/(uCi/g)] as a function of time.
Malignant glioma is another type of cancer that can be effectively treated with TMZ because TMZ can readily penetrate the blood-brain barrier. […]

AP sites [2] = test: microPET of [^11C]MX in melanoma (WM164) xenografts, TMZ-treated vs non-treated; assay type: in vivo, mice; details: melanoma xenograft
Method: as §1
Following MRI studies, the mice were transferred to a Concord R4 microPET scanner under anesthesia. The same holder was used for microPET studies so that the tumor positions of the mice remain unchanged in order to facilitate image coregistration with MRI. Subsequently, dynamic microPET scans were performed over 60 min in a list mode, immediately after a bolus injection of ca. 500 μCi of [^11C]MX via the tail vein. Body temperature in the anesthetized animals was monitored using a rectal temperature probe and maintained at 37+/−2° C. with a heating lamp or a heating pad.
Following MRI and microPET studies, we conducted quantitative image analysis in order to evaluate the in vivo pharmacokinetic profiles of [^11C]MX in tumor tissues. We defined the tumor tissues as the region of interest (ROI) through coregistration of microPET images with MRI images. The co-registered images were used for quantitative image analysis to determine [^11C]MX uptake and retention associated with tumor tissues. The radioactivity concentration in the tumor regions is expressed in terms of standard uptake volume (SUV) [(μCi/cc)/(uCi/g)] as a function of time.
Because TMZ, like dacarbazine, has been used in the treatment patients with metastatic malignant melanoma, we first conducted microPET studies in human (WM164) melanoma xenograft tumor model. In each experiment, two mice bearing melanoma xenografts were used, one treated with TMZ (80 mg/kg) to induce DNA damage and the other used as negative control. Prior to microPET scans, the mice were placed in a 7T MRI scanner and T2-weighted MRI images were acquired following the above-mentioned protocol. […]

AP sites [3] = test: ARP assay of AP sites in A375 melanoma cells; assay type: cell-based; details: 12.5 mM co-treatment with TMZ, 24 hr
Method: FIG. 5 illustrates a graph showing AP sites increased in melanoma cells (A375) after treatment with TMZ in a dose-dependent manner. Using ARP assay, formation of AP sites in A375 melanoma cells were measured. Cells were treated with TMZ (0-1500 μM) alone or TMZ plus MX (12.5 mM) for 24 hr for a dose-dependent assay (black), or treated with TMZ and MX (12.5 mM) for 24 hr, or treated with TMZ and F422 (12.5 mM) for 24 hours.

AP sites [4] = test: In vivo blocking experiment with unlabelled MX (microPET, glioma tumors); set-up: species or system mice; details: TMZ 80 mg/kg; unlabelled MX 2-10 mg/kg 30 min before [^11C]MX 2 mCi/kg; p value=0.003
Method: FIG. 4 illustrates; (A) plots of time-radioactivity courses of [^11C]MX in the glioma tumors before and after blocking by unlabelled MX; and (B) a graph showing average SUV between 0-60 min (n=4, where n is the number of tumors imaged and analyzed). Decrease of radioactivity concentration indicates in vivo blocking of AP binding sites by unlabeled MX (p value=0.003).
Thus, we conducted in vivo blocking experiment in tumor mice with unlabelled MX as a further test of whether the difference in radioactivity concentrations between TMZ-treated and untreated tumors is due to specific binding of [^11C]MX to AP sites. For this purpose, 4 tumor-bearing mice were treated with TMZ (80 mg/kg) for 10 min. Following the treatment, two mice were injected with unlabelled MX (2-10 mg/kg) and two were injected with vehicle control. Thirty minutes later, 2 mCi/kg of [^11C]MX was administered to each mouse and microPET imaging was performed. In each case, a vehicle-treated and an unlabeled MX-treated mouse were imaged side-by-side. Dynamic acquisition was carried out for 60 min in list mode.

| Structure (SMILES) | retention of [^11C]MX in tumor regions (AP sites [1]) | radioactivity concentration in tumor, TMZ-treated vs non-treated mice (AP sites [2]; TMZ 80 mg/kg, 10 min post injection of [^11C]MX (ca. 2 mCi/kg i.v.)) | tumor uptake of [^11C]MX in TMZ-treated vs non-TMZ treated mice (AP sites [2]; TMZ 80 mg/kg, 60 min scan) | entry of [^11C]MX into tumor tissue (AP sites [2]; i.v. ca. 2 mCi/kg, microPET) | ARP detected AP sites on co-treatment with TMZ (AP sites [3]) | concentration of tumor-associated radioactivity after blocking with unlabelled MX (AP sites [4]) |
| --- | --- | --- | --- | --- | --- | --- |
| [11CH3]ON [[^11C]MX, (^11C)methoxyamine] | higher in TMZ-treated tumor regions than in non-treated tumor regions | 1.6 fold | increased uptake | readily entered the tumor tissue at early time points | – | – |
| CON [MX, methoxyamine] | – | – | – | – | reduced the ARP detected AP sites | significantly decreased |
